Source: paper PMC8658998, “Identification of Novel Antistaphylococcal Hit Compounds Targeting Sortase A” (Molecules, 2021)
Like-named read-outs stand apart in the source and are kept apart here.

Biological target: T1, sortase A (Staphylococcus aureus, UniProt Q2FV99)
T1 construct: gene srtA
Assay: SensoLyte […] Sortase A FRET substrate cleavage assay (5-FAM/QXL)
Format: biochemical

T1 sequence (Q2FV99 whole entry): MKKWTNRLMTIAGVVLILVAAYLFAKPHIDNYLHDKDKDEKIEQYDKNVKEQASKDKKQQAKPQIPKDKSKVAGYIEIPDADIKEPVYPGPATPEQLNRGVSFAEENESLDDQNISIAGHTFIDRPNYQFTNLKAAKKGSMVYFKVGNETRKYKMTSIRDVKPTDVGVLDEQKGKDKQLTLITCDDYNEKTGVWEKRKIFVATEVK

Compound	IC50 (read-out: IC50) [µM]	IC50 [µM]
CCN(CC)CCCNc1cc([N+](=O)[O-])ccc1-c1ncc2ccccc2n1 [compound 1, N,N-diethyl-N′-(5-nitro-2-(quinazolin-2-yl)phenyl)propane-1,3-diamine]	160	–
c1ccc2c(Nc3ccc4[nH]cnc4c3)c3ccccc3nc2c1 [compound 2, acridin-9-yl-(1H-benzoimidazol-5-yl)-amine]	–	207
